The source of these data is patent US20240190851A1, “FURAN FUSED RING-SUBSTITUTED GLUTARIMIDE COMPOUND” (MEDSHINE DISCOVERY INC., priority 2021, published 2024).

Where a name gives a salt, the structure may show the parent alone.

The test system of assay [1] is human prostate cancer LNCaP cells. As to the kind of experiment: Antiproliferative effect in LNCaP cells (CellTiter-Glo, 6 days). The format is cell-based. As to conditions: 144 h. The protocol: In this experiment, the inhibitory effect of the test compound on cell proliferation in human prostate cancer LNCaP cells was detected.
The tumor cell lines were cultured in a 37° C., 5% CO2 incubator under the above culture conditions. Regular passage, and cells in logarithmic growth phase were taken for plating.
2. Cell Plating • (1) Cells were stained with trypan blue and viable cells were counted; • (2) the cell concentration was adjusted to an appropriate concentration;
• (3) 90 μL of cell suspension per well was added to the culture plate as shown in the table above, and cell-free culture medium was added to the blank control well; • (4) the culture plate was cultured overnight in a 37° C., 5% CO2 incubator with 100% relative humidity.
Preparation of stock solution storage plate with 400 times the initial concentration of the compound: The compound was serially diluted with DMSO from the highest concentration to the lowest concentration. The solution was prepared as needed each time.
Preparation of Working Solution with 10 Times the Initial Concentration of Compounds and Cell Treatment with Compounds • (1) To a V-bottom 96-well plate was added 78 μL of cell culture medium, and 2 μL of compound was pipetted from a stock solution storage plate with 400 times the initial concentration of the compound and added to the cell culture medium of the 96-well plate. To vehicle control and blank control was added 2 μL of DMSO. After the compound or DMSO was added, blowing with a pipette and mixing well were carried out. • (2) Administration: 10 μL of a working solution with 10 times the initial concentration of the compound was added to the cell culture plate. To vehicle control and blank control was added 10 μL of DMSO-cell culture medium mixture. • (3) The 96-well plate was returned to the incubator and cultured for 6 days.
The following steps were performed according to the instructions of Promega CellTiter-Glo luminescent cell viability assay kit (Promega-G7573). • (1) CellTiter-Glo buffer was melted and brought to room temperature; • (2) CellTiter-Glo substrate was brought to room temperature; • (3) CellTiter-Glo working solution was prepared by adding 100 mL of CellTiter-Glo buffer to a vial of CellTiter-Glo substrate to dissolve the substrate; • (4) the mixture was slowly vortexed and shaken to be fully dissolved; • (5) the cell culture plate was taken out and left for 30 minutes to equilibrate to room temperature; • (6) 50 μL of CellTiter-Glo working solution was added per well (equal to half the volume of cell culture medium per well). The cell plate was wrapped in aluminum foil to be protected from light; • (7) the culture plate was shaken on an orbital shaker for 2 minutes to induce cell lysis; (8) the culture plate was left at room temperature for 10 minutes to stabilize the luminescent signal; • (9) the luminescent signal was detected on a 2104 EnVision plate reader.
The inhibition rate (IR) of the test compound was calculated using the following formula: IR (%)=(RLU vehicle control−RLU compound)/(RLU vehicle control−RLU blank control)×100%. The inhibition rates of compounds at different concentrations were calculated in Excel, and then GraphPad Prism software was used to plot inhibition curves and calculate relevant parameters, including minimum inhibition rate, maximum inhibition rate, and ICSO.
In general terms: ATP-based viability assays read luminescence as a measure of living cells.

Another assay addresses T1, androgen receptor AR (Homo sapiens, UniProt P10275, T878A).
T1 construct: degradation effect of compounds on androgen receptor AR in LNCaP cells; endogenous in cells; host or cells: LNCaP
T1 sequence (P10275 1-920 T878A): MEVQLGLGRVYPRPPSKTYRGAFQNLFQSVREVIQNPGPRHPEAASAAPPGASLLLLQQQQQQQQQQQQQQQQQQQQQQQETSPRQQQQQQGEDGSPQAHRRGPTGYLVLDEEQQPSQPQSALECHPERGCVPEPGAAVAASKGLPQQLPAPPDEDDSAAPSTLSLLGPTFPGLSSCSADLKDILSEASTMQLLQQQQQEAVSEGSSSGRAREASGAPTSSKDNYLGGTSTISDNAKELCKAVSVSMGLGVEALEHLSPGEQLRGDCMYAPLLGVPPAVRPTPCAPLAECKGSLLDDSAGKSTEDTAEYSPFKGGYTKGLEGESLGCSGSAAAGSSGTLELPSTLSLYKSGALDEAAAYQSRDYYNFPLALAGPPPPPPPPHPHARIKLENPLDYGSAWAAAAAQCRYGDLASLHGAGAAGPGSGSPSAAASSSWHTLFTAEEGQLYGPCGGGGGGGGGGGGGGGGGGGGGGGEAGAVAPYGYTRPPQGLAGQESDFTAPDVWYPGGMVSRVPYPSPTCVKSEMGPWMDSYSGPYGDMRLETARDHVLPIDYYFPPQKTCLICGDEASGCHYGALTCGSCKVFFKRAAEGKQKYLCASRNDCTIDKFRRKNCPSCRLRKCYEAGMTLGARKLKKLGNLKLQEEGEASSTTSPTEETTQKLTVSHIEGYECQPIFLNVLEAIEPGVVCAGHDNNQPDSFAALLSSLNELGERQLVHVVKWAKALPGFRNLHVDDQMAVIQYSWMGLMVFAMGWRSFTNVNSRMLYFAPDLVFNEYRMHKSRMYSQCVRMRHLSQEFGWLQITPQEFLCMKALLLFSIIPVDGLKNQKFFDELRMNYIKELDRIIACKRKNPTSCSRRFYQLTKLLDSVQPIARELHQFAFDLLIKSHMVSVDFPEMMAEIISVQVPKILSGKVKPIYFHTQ
As to the kind of experiment: AR degradation in LNCaP cells by ICW method. To be noted: 24 hours. The format is cell-based. The protocol: Experimental purpose: To test the degradation effect of compounds on androgen receptor AR in LNCaP cells by ICW method.
Day 1 • 1. The cell culture medium, 0.025% trypsin, and phosphate buffered saline were preheated in a 37° C. water bath. • 2. Cells digested by trypsin were centrifuged at 1000 rpm for 5 minutes. The supernatant was discarded, and then the cells were resuspended in fresh culture medium. • 3. The cells were inoculated in a COL-Coated CellCarrier-384 plate at a density of 4 k/[…]/well. • 4. The 384 cell plate inoculated with cells was placed in an ultra-clean bench for 10 minutes. • 5. The cell plate was cultured overnight in a CO2 cell incubator.
Day 2 • 1. The compound at a concentration of 10 mM was diluted to 3 mM (3 μL+7 μL of dimethyl sulfoxide) before serial dilution. • 2. The compound was serially diluted 3-fold (4 μL+8 μL) in an Echo plate using Bravo. • 3. ZPE and HPE control wells were setup, and the ZPE control wells were dimethyl sulfoxide. • 4. The Echo plate was centrifuged at 1000 rpm for 1 minute, and then the diluted compound was transferred from the Echo plate to an intermediate plate using Echo with 200 nL/well. • 5. To the intermediate plate was added the cell culture medium using Multidrop combi with […]. • 6. The intermediate plate was shaken on a horizontal shaker for 1 minute to mix the compound well with the culture medium. • 7. The compound was transferred from the intermediate dilution plate to the cell plate using Bravo with 4 μL/well. • 8. The cell plate was shaken on the horizontal shaker for 1 minute, and centrifuged at 800 rpm for 30 seconds. • 9. The cell plate was returned to the CO2 incubator, and cultured for another 24 hours.
Day 3 • 1. 4% paraformaldehyde was removed from the refrigerator and brought to room temperature. • 2. The cell plate was removed from the incubator. • 3. To the cell plate was directly added 4% paraformaldehyde with 40 μL/well. • 4. The plate was incubated at room temperature for 20 minutes. • 5. The culture medium was manually shaken off from the cell plate, inverted in a centrifuge, and centrifuged at 800 rpm for 7 seconds to fully remove the residual culture medium. • 6. To the cell plate was added 4% paraformaldehyde with 25 μL/well. • 7. The plate was incubated at room temperature for 30 minutes. • 8. The paraformaldehyde solution was manually shaken off from the cell plate, inverted in the centrifuge, and centrifuged at 800 rpm for 7 seconds. • 9. 0.1% Trition was added with 25 μL/well. • 10. The plate was incubated at room temperature for 10 minutes. • 11. The 0.1% Trition solution was manually shaken off from the cell plate, inverted in the centrifuge, and centrifuged at 800 rpm for 7 seconds. • 12. Intercept® (PBS) blocking buffer was added with 25 μL/well. • 13. The plate was incubated at room temperature for 1 hour. • 14. The Intercept® (PBS) blocking buffer solution was manually shaken off from the cell plate, inverted in the centrifuge, and centrifuged at 800 rpm for 7 seconds. • 15. Primary antibody solution was added with 20 μL/well. The cell plate was placed in the centrifuge, and centrifuged at 800 rpm for 7 seconds. • 16. The cell plate was sealed, and then incubated overnight at 4° C.
Day 4 • 1. The primary antibody solution was manually shaken off from the cell plate, inverted in the centrifuge, and centrifuged at 800 rpm for 7 seconds. • 2. The plate was washed three times with 110 μL of PBS. • 3. The cell plate was inverted in the centrifuge, and centrifuged at 800 rpm for 7 seconds. • 4. Secondary antibody and DAPI solution was added with 20 μL/well. The cell plate was placed in the centrifuge, and centrifuged at 800 rpm for 7 seconds. • 5. The plate was incubated at room temperature for 1 hour. • 6. The secondary antibody and DAPI solution was manually shaken off from the cell plate, inverted in the centrifuge, and centrifuged at 800 rpm for 7 seconds. • 7. […]

Assay [2] concerns human prostate cancer LNCaP xenograft tumor. The assay is described as follows: In vivo pharmacodynamic study, LNCaP subcutaneous xenograft tumor CB-17 SCID model. To be noted: Enzalutamide 20 mg/kg p.o. QD. On the set-up: species or system CB-17 SCID mice. How it is done: Human prostate cancer LNCaP cells (ECACC-89110211) were cultured in vitro in a monolayer under the culture conditions of RPMI-1640 medium with 10% fetal bovine serum, […], and 100 μg/mL streptomycin, and cultured in a 37° C., 5% CO2 incubator.
Routine digestion with trypsin-EDTA was performed twice a week for passaging. When the cell saturation density was 80% to 90% and the number of cells reached the required level, the cells were collected, counted, and inoculated.
CB-17 SCID mice, 6 to 8 weeks old, male, weighing 18 to 22 g.
0.2 mL (1×10^7) of LNCaP cells (with matrix gel, volume ratio of 1:1) were subcutaneously inoculated on the right back of each mouse. The mice were subjected to surgical castration when the average tumor volume reached approximately 80 mm^3, and grouping and administration were initiated when the average tumor volume reached 166 mm^3.
Tumor diameters were measured twice a week with a vernier caliper. The formula for calculating tumor volume was: V=0.5a×b^2, wherein a and b represented the long and short diameters of the tumor, respectively.
The antitumor efficacy of compounds was evaluated by TGI (%). TGI (%) reflected the tumor growth inhibition rate. TGI (0%)=[(1−(average tumor volume at the end of administration in a treatment group−average tumor volume at the beginning of administration in this treatment group))/(average tumor volume at the end of treatment in the vehicle control group−average tumor volume at the beginning of treatment in the vehicle control group)]×100%.

In general, IC50 refers to the point on the concentration scale where inhibition reaches its midpoint. Read a low IC50 as greater potency. In assay [1], `CC1(C)C(=O)N(c2ccc(C#N)c(C(F)(F)F)c2)C(=S)N1c1ccc(OCCN2CCN(CC(=O)Nc3ccc4occ(C5CCC(=O)NC5=O)c4c3)CC2)c(F)c1` (centres unmarked) [WX001] gave an IC50 of 333 nM. The same measure, in the same setting: under `CC1(C)C(=O)N(c2ccc(C#N)c(C(F)(F)F)c2)C(=S)N1c1ccc(OCCN2CCN(CCCc3ccc4c(C5CCC(=O)NC5=O)coc4c3)CC2)c(F)c1` (centres unmarked) [WX004] stands 25 nM. Same read-out and setting: under `CC1(C)C(=O)N(c2ccc(C#N)c(C(F)(F)F)c2)C(=S)N1c1ccc(OCCN2CCN(C3(C(=O)Nc4ccc5occ(C6CCC(=O)NC6=O)c5c4)CC3)CC2)c(F)c1` (centres unmarked) [WX005] stands 190 nM. The DC50 is the midpoint of the concentration-degradation curve. The low end stands for a more potent degrader, the high end for a less potent degrader. As usually defined, the Dmax is the largest share of the target that was removed. Take `CC1(C)C(=O)N(c2ccc(C#N)c(C(F)(F)F)c2)C(=S)N1c1ccc(OCCN2CCN(CC(=O)Nc3cccc4c3ccc3occ(C5CCC(=O)NC5=O)c34)CC2)c(F)c1` (centres unmarked) [WX009]: at androgen receptor AR, it took 10.1 nM to reach half-maximal degradation (DC50) and the Dmax came out at 64.7%.

The molecule `CC1(C)C(=O)N(c2ccc(C#N)c(C(F)(F)F)c2)C(=S)N1c1ccc(OCCN2CCN(CC(=O)Nc3ccc4c(ccc5occ(C6CCC(=O)NC6=O)c54)c3)CC2)c(F)c1` (centres unmarked) [WX003] showed an IC50 in assay [1] of 230 nM. As for `CNC(=O)c1ccc(N2C(=S)N(c3ccc(C#N)c(C(F)(F)F)c3)C(=O)C2(C)C)cc1F` [Enzalutamide, reference compound], the “Tumor volume (Day 0)” value in assay [2] (Day 0, start of administration) was 166 ± 18 mm^3. Also, in assay [2] (Day 21), the “TGI (Day 21)” value turned out to be 101.9% and the “Tumor volume (Day 21)” value was determined as 157 ± 37 mm^3. At androgen receptor AR, `N#Cc1ccc(O[C@H]2CC[C@H](NC(=O)c3ccc(N4CCC(CN5CCN(c6ccc7c(ccc8occ(C9CCC(=O)NC9=O)c87)c6)CC5)CC4)nn3)CC2)cc1Cl` (some centres unmarked) [Hydrochloride of WX014] gave a DC50 of 22.4 nM and a Dmax of 76.2%.
